Measured values taken from PubChem BioAssay (NCI).
Values joined by “and” are separate entries in the source; they are usually repeats but may differ in a detail not shown here. Equal values may be shown once.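 Where inhibition never reached the appropriate level, the endpoint shown equals the highest concentration tested. Otherwise, values were interpolated linearly from a five-concentration, 48-hour dose response in 96-well plates. At the GI50, growth is halved. TGI marks complete inhibition of growth.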

Tested on: OVCAR-4 ovarian
Assay: inhibition of tumour cell growth, NCI panel, 48 h

Row | SMILES | TGI | GI50
1 | CCCCN1C=CN2c3nc4cc(C)c(C)cc4n3C(C(=O)OC)=C(C(=O)OC)C12 (configuration not stated) | > 100 µM | 
2 | COC(=O)C(=C/c1ccc(OC)cc1)/C(C(=O)O)=C(/C)c1ccccc1 | > 100 µM | 
3 | C=C1C(=O)O[C@H]2[C@H]1[C@@H](OC(=O)C=C(C)C)CC1=C[C@@H](C[C@@]3(C)O[C@@H]23)OC1=O | 20.6 µM and 13.7 µM | 4.55 µM
4 | CCC1c2[nH]c3ccccc3c2C[C@H]2C(=O)NC(COC(C)(C)C)C(=O)N12 (some centres not stated) | > 100 µM | 
5 | CCOC(=O)CC1CCN(C(=O)c2ccccc2)C2Cc3c([nH]c4ccccc34)C12C[N+](=O)[O-] (configuration not stated) | > 100 µM | 
6 | CC12CCC(C(=O)OC1=O)C2(C)C (configuration not stated) | > 100 µM | 
7 | CCOC(=O)C(N=Nc1ccc(S(N)(=O)=O)cc1)C(C)=O (configuration not stated) | > 100 µM | 
8 | Cc1ccc(C2CC(c3ccco3)=NN2c2ccccc2)o1 (configuration not stated) | > 100 µM | 
9 | C/C(=C1/CCCC2(N=NCC2c2ccccc2)C1=O)c1ccccc1 (configuration not stated) | > 100 µM | 
10 | CCN1CCN(c2ccc(Nc3ccnc4ccc5nn(C)nc5c34)cc2)CC1 | 26.1 µM | 
11 | CC(C)CC1[C@@H](OCc2ccccc2)COS(=O)N1Cc1ccccc1 (some centres not stated) | > 100 µM | 
12 | OCC1OC(n2cnc3c2NC=NC[C@H]3O)C(O)C1O (some centres not stated) | > 450 µM | 
13 | O=[N+]([O-])c1ccc(-n2nnc(C3=NCCCN3)c2-c2ccc(Cl)cc2)cc1 | > 100 µM | 
14 | COc1cc2c(cc1OC)C(O)[C@H](Br)C(C)(C)O2 (some centres not stated) | > 100 µM | 
15 | COC1=C(Br)[C@H](O)[C@@]2(C=C1Br)CC(C(=O)NCCCCCN=C(N)N)=NO2 | > 10 µM | 
16 | CCCCCC(C[N+]1(C)CCOCC1)C(=O)/C=C/c1ccccc1 (configuration not stated) | 15.9 µM | 
17 | CC1(C#N)CC(C)(C)C(/C=C2/CC(C)(C)C(/C=C3/OC(=N)CC3(C)C)=N2)=N1 (configuration not stated) | 43.7 µM | 
18 | COc1ccc(C[N+]23C(CC[C@H]2c2ccccc2)CC[C@H]3c2ccccc2)cc1 (some centres not stated) | 84.1 µM | 
19 | O=C1c2cc3c(cc2CC12Cc1cc4c(cc1C2=O)CCC4)CCCC3 (configuration not stated) | > 100 µM | 
20 | CCOC(=O)CC1c2ccc(O)cc2OC(=O)C1c1ccc([N+](=O)[O-])cc1 (configuration not stated) | 92.3 µM | 
21 | CC(=O)OCC1OC(Nc2ncc(-c3ccc(C)cc3)s2)C(OC(C)=O)C(OC(C)=O)C1OC(C)=O (configuration not stated) | 60.6 µM | 
22 | CCN(CC)/C(Cl)=C(Cl)\C(=C1\Nc2ccc(OC)cc21)[N+](=O)[O-] | > 100 µM | 

Tested on: K-562 leukemia
Assay: inhibition of tumour cell growth, NCI panel, 48 h

Row | SMILES | TGI | GI50
23 | Cc1ccc2c(c1CCCC(C)(C)O)C(=O)C(=O)C(C(C)C)=C2O | > 100 µM | 
24 | CC(=O)c1sc2c(c1OC(=O)c1cccs1)c(=O)n(-c1ccccc1)c(=S)n2-c1ccccc1 | 95.4 µM | 
25 | C[C@]12CCC(=O)C=C1CC[C@@H]1C2CC[C@]2(C)c3nn(-c4ccc(F)cc4)nc3CC12 (some centres not stated) | > 100 µM | 
26 | CN(C)C(=O)NCCN1CCCCCc2ccccc21 | > 100 µM | 
27 | O=C1C(Cl)C(c2ccccc2)N1n1cnc2ccccc2c1=O (configuration not stated) | > 100 µM | 
28 | CN(C)C(=O)OCOC(=O)N(C)C | > 100 µM | 
29 | CC(=O)Oc1ccccc1-c1cc2ccccc2oc1=O | > 100 µM | 
30 | COC(=O)c1ccc(/C=C2\N=C(C)OC2=O)cc1 | > 100 µM | 
31 | Cc1ccc2nc(-c3ccc(N)c(I)c3)sc2c1 | > 100 µM | 
32 | CCOC(=O)c1nc2c(Cl)c3ncccc3cc2[nH]c1=O | > 100 µM | 
33 | CCOC(=O)C1=C(Nc2cccc(OC)c2)OCC1=O | > 100 µM | 
34 | O=C1NC(=O)C(CCO)(c2ccccc2)C(=O)N1 | > 100 µM | 
35 | CO[C@H]1[C@@H](O)[C@@H](C)O[C@@H](O[C@H]2CC[C@@]3(C)[C@H](CC[C@@H]4[C@@H]3CC[C@]3(C)[C@@H](C5=CC(=O)OC5)[C@@H](OC(C)=O)C[C@]43O)C2)[C@@H]1O | 0.756 µM | 
36 | Cc1cn(C2CC(ON3C(=O)c4ccccc4C3=O)C(CO)O2)c(=O)[nH]c1=O (configuration not stated) | > 10 µM | 
37 | C=CCn1c(=O)n(CC=C)c(=O)n(CC=C)c1=O | > 100 µM | 
38 | CCCCN1C=CN2c3nc4cc(C)c(C)cc4n3C(C(=O)OC)=C(C(=O)OC)C12 (configuration not stated) | > 100 µM | 
39 | COC(=O)C(=C/c1ccc(OC)cc1)/C(C(=O)O)=C(/C)c1ccccc1 | > 100 µM | 
40 | C=C1C(=O)O[C@H]2[C@H]1[C@@H](OC(=O)C=C(C)C)CC1=C[C@@H](C[C@@]3(C)O[C@@H]23)OC1=O | 50.2 µM and 9.4 µM | 1.02 µM and 3.16 µM
41 | CCC1c2[nH]c3ccccc3c2C[C@H]2C(=O)NC(COC(C)(C)C)C(=O)N12 (some centres not stated) | > 100 µM | 
42 | CCOC(=O)CC1CCN(C(=O)c2ccccc2)C2Cc3c([nH]c4ccccc34)C12C[N+](=O)[O-] (configuration not stated) | > 100 µM | 
43 | CC12CCC(C(=O)OC1=O)C2(C)C (configuration not stated) | > 100 µM | 
44 | CCOC(=O)C(N=Nc1ccc(S(N)(=O)=O)cc1)C(C)=O (configuration not stated) | > 100 µM | 
45 | Cc1ccc(C2CC(c3ccco3)=NN2c2ccccc2)o1 (configuration not stated) | > 100 µM | 
46 | C/C(=C1/CCCC2(N=NCC2c2ccccc2)C1=O)c1ccccc1 (configuration not stated) | 41.4 µM | 
47 | CCN1CCN(c2ccc(Nc3ccnc4ccc5nn(C)nc5c34)cc2)CC1 | > 100 µM | 
48 | CC(C)CC1[C@@H](OCc2ccccc2)COS(=O)N1Cc1ccccc1 (some centres not stated) | > 100 µM | 
49 | OCC1OC(n2cnc3c2NC=NC[C@H]3O)C(O)C1O (some centres not stated) | > 284 µM | 
50 | O=[N+]([O-])c1ccc(-n2nnc(C3=NCCCN3)c2-c2ccc(Cl)cc2)cc1 | > 100 µM | 
